This assay addresses T1, rmTLR4/MD-2 (Mus musculus, UniProt Q9JHF9+Q9QUK6).
T1 construct: purchased
T1 sequence (Q9QUK6 26-638 limits assumed): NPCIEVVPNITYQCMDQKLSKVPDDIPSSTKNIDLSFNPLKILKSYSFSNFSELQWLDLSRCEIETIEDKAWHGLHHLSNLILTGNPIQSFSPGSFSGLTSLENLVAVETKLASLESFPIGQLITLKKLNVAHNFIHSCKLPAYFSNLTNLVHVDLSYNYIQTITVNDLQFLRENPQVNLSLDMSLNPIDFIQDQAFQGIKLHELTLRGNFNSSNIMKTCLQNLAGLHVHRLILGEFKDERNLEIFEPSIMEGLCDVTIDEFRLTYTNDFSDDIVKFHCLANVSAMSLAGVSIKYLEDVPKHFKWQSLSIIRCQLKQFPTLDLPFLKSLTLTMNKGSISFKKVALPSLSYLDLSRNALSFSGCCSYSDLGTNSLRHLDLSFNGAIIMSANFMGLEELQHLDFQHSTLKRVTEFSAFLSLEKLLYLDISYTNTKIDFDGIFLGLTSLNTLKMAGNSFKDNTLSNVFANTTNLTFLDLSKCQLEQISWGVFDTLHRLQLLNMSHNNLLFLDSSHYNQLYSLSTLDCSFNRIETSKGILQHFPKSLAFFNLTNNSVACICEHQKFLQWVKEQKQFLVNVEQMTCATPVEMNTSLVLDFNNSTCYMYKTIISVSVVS
T1 sequence (Q9JHF9 19-160): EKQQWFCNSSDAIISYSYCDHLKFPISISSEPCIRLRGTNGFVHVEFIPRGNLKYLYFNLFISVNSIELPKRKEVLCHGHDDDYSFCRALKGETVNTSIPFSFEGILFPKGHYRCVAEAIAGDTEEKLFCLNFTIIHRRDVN
The assay can be described thus: Selectivity test, TLR4/MD-2 sensor, EIS. The format is binding. The settings on record: 10 μM.

Pam3CSK4: the “electrochemical response (selectivity test)” value is listed as “slight signal variations”.

These data come from patent US10794932B2, “Biosensor for the detection of a biological target, and method for manufacturing the same” (The Governing Council of The University of Toronto, priority 2016, dated 2020).
